Measured values reported in patent publication US20050153856A1, “Methods and compositions for killing spores” (priority 2002, published 2005).

Tested on: Bacillus thuringiensis spores
Test: Killing of spores (Example 2): microtiter serial 10-fold dilution, growth read with MTT
Assay type: cell-based
Settings: wells 7-8: KI only, no laccase, no methylsyringate, 1 hour 24 degrees Celsius pH 6.5
Experimental: Spore suspension was pipetted into the wells in row A of a microtiter plate. The reaction was initiated by the addition of laccase solution.
The microtiter plate was incubated at room temperature (24 degrees Celsius) for 1 hour.
In the tables growth is indicated with a “+” symbol.

Measured: growth

[I-].[K+] [KI, Potassium iodide]
+: 10-fold dilution step 4 | listed as B, 10-fold dilution step 1 | listed as C, 10-fold dilution step 2 | listed as D, 10-fold dilution step 3 | listed as F, 10-fold dilution step 5 | listed as G, 10-fold dilution step 6
